# Measurements published in patent publication US20060276385A1, “Anti-inflammatory agents and methods of their use” (priority 2003, published 2006).
# Tests used:
# [1] = system: MAEC; test: Monocyte adhesion: THP-1 monocytes bound to mouse aortic endothelial cells; format: cell-based
# Description: Endothelial cells: Mouse aortic endothelial cells (MAEC) were cultured and used at passages 4-8 as described (Cai, H., et al. (2002) J Bio Chem 107, 48311-48317). Human aortic endothelial cells (HAEC) purchased from Clonetics were cultured using EGM-2 bullet kit (Clonetics) and used at passages 4-8. Alternatively, endothelial cells obtained from the thoracic aortas of C57/BL6 control (MAE-wt) and p47^phox-null mice (MAE-p47^−/−) were isolated and cultured as described previously (Hwang, J. et al. (2003) J Biol Chem 278:47291-8), and used between passages 4-10.
# Shear stress studies: Confluent endothelial monolayers grown in 100 mm tissue culture dishes were exposed to an arterial level of uni-directional LS (15 dyn/cm^2) in the growth medium by rotating a Teflon cone (0.5° cone angle) as described previously. To mimic unstable shear conditions in vivo, endothelial cells were exposed to OS with directional changes of flow at 1 Hz cycle (±5 dyn/cm^2) by rotating the cone back-and-forth using a stepping motor (Servo Motor) and a computer program (DC Motor Company, Atlanta, Ga.). In some studies, 5 dyn/cm^2 unidirectional LS was used for comparison to OS (±5 dyn/cm^2).
# Monocyte Adhesion: Monocyte binding was determined under no-flow conditions using THP-1 monocytes (ATCC) by the method described by Chappel et al (Chappell, D. C., et al. (1998) Circ Res 82, 532-539). Briefly, THP-1 cells (5×10^5 cells/ml) were labeled with a fluorescent dye 2′,7′-bis(carboxyethyl)-5(6)-carboxyfluorescein-AM (BCECF, Molecular Probes) (1 mg/ml) in serum-free RPMI medium for 45 min at 37° C. Following exposure to shear stress or BMP treatments in the presence or absence of noggin or vehicle, the endothelial cells were washed in RPMI medium before adding BCECF-loaded THP-1 cells (1:1 ratio). After a 30 min incubation at 37° C. under no-flow conditions, unbound monocytes were removed by washing the endothelial dishes 5 times with Hank's PBS. Bound monocytes were quantified by either counting the cells under a fluorescent microscope or by measuring the fluorescent intensity of cell lysates by fluorescence spectrophotometry using a plate reader. […] Some studies were performed with MAEC pretreated with 5 μg/ml of mouse-ICAM1 antibody (YN1, Southern Biolechonology) (Kevil, C. G., et al. (2001) Am J Physiol Cell Physiol 281, C1442-1447).
# In FIG. 7B, confluent MAE-wt cells were pre-incubated with cell-permeable PEG-catalase (Catalase, 100 U/ml for 18 hrs) or Tiron (10 μmol/L for 1 hr). Cells were then incubated with 20 ng/ml BMP4 or vehicle for additional 18 hrs. The treated cells in 7A and 7B were washed, and fluorescently-labeled THP-1 monocytes were added. Unbound THP-1 cells were washed after 30 min, and bound monocytes were counted with a fluorescence microscope using a 10× objective (5-10 different fields per dish). […] As a positive control, monocyte binding was determined using MAE-wt treated with TNF-α(100 U/ml for 2hrs).
# [2] = system: E-selectin; test: E-selectin surface expression by FACS analysis in HAEC; format: cell-based, human; details: TNF-α 100 U/ml for 2 hr as positive control
# Description: Fluorescence activated cytometry sorting (FACS) analysis: Treated cells were dissociated into single cell suspensions using 0.25% trypsin-EDTA and resuspended in a FACS buffer (Hank's buffered solution containing 5% FBS). Aliquots of cell suspensions were incubated with ICAM-1 antibody (R&D Systems) for 20 min on ice, washed twice with FACS buffer, and incubated with secondary antibody (fluorescein-5-isothiocyanate- or phycoerytherin-conjugated, Chemicon) for 20 min on ice in the dark. Then samples were washed again, fixed in 1% paraformaldehyde and analyzed by FACS (Calibur, Becton-Dickinson) using CellQuest software. The fluorescence intensity of ICAM-1 and forward cell scattering of 30,000 cells were measured and the geometric means calculated from histograms were shown. […] In these experiments, ICAM-1 expression was measured in the red phycoerytherin channel, while the green channel was used to monitor the […] expression-GFP expression was determined by FACS analysis and fluorescence microscopy (20-30% transfection efficiency). […]
# HAEC treated with OS, BMP4 or static condition were analyzed by FACS using antibodies specific to VCAM-1 (C) and E-selectin (D) as described in panel A using TNFa (1OOU/ml, for 2 hr) as a positive control.
# [3] = system: NF-κB; test: NF-κB assay with NF-κB-SEAP reporter construct; format: cell-based; details: NF-κB-SEAP co-transfected with BMP4 vector vs empty vector
# Description: NF-κB assay: NF-κB activity was determined by using a NF-κB reporter construct, NF-κB-SEAP vector (lug, Clontech) expressing a secreted form of placental alkaline phosphatase driven by […] sequences in tandem. This construct was co-transfected with 0.5 μg of either pAdTrack BMP4 or empty vector control using Lipofectamine 2000. Six hours post transfection, conditioned media were centrifuged, heat-treated at 65° C. (to inactivate endogenous alkaline phosphatase) for 30 min, and followed by chemiluminescence alkaline phosphatase assay according to the manufacturer's instructions.
# In this study, NF-κB-SEAP construct expressing a secreted form of placental alkaline phosphatase driven by 4 κB sequences in tandem was co-transfected with either BMP4 vector or empty vector control by a Lipofectamine method used above (FIG. 5F).
# [4] = system: MAE-wt cells; test: O2− assay by electron spin resonance spectroscopy with CMH spin probe; format: cell-based, mouse; details: MAE-wt cells, BMP4 200 ng/ml for 18 hrs, SOD-inhibitable CM signal
# Description: O2^− Assay: O2^− production was determined by electron spin resonance spectroscopy using methoxycarbonyl-2,2,5,5-tetramethyl-pyrrolidine (CMH) as a spin probe in the presence or absence of PEG-superoxide dismutase (PEG-SOD; 50 U/ml) to quantify the SOD-inhibitable portions of CM.
# In FIG. 10A immediately following treatment of MAE wt cells with BMP4 (200 ng/ml) for 18 hrs, cells were trypsinized and reconstituted in Krebs-Hepes buffer. Equal number of cells was incubated with a spin trap CMH in the presence or absence of PEG-SOD (50 U/mL). The specific O2^− production was calculated by subtracting SOD-inhibitable portions from total O2^− production as determined by following CM production (mean±SEM, n=3, *p<0.05).
substance,measurement,setting,value
BMP4,monocyte adhesion above vehicle control,"[1]; MAE-wt cells, BMP4 20 ng/ml, 18 hrs",5 to 6 fold
same,effect on LS inhibition of monocyte adhesion,[1]; MAEC sheared (LS) 24 hrs in medium supplemented with BMP4,inhibitory effect of LS on monocyte adhesion was lost
same,"monocyte binding, maximum activation over control",[1]; MAEC treated with increasing concentrations of BMP4 for 24 hr (overnight),4 to 7 fold
same,BMP4 concentration inducing maximum effect on monocyte adhesion,"[1]; MAEC, 24 hr",50 ng/mL
same,lowest BMP4 concentration inducing a statistically significant increase in monocyte adhesion,"[1]; MAEC, 24 hr",0.1 ng/mL
same,effect on surface expression of E-selectin,[2],neither OS nor BMP4 had any effect
same,NF-κB activity above controls,[3],more than 3 fold
same,O2− production above control,[4],2.9 fold
